# Results published in US8969563B2, “Calcium salt of pyrroloquinoline quinone” (Mitsubishi Gas Chemical Company, Inc., priority 2010, dated 2015).
# Where a name gives a salt, the structure may show the parent alone.
# How the values were obtained:
# [1] = Release of PQQ from the white calcium salt in solvents; format: physicochemical; settings: for Appearance: 40° C., five hours
# Experimental: After keeping each resultant mixture at 40° C. for five hours, centrifugation was performed to remove solids, and PQQ was analyzed on high performance liquid chromatography.
# [2] = system: Chinese hamster ovary cells (CHO-DHFR−); assay: Absorption test using cells (cell growth promotion / retardation); format: cell-based; settings: 2-day culture; for Optimum cell growth concentration: Cell Counting Kit 8, absorbance 450 nm, concentration at which cell count is largest (about 5%) compared to without PQQ, tested 150 to 2.3 μg/mL; for Cell growth retarding concentration: concentration at which total cell count is decreased by about 10% compared to without PQQ
# Experimental: PQQ has effects of promoting cell growth and of retarding cell growth at a higher concentration on cultured animal cells. Based on these effects, change in the cell absorption was tested.
# Chinese hamster ovary cells (CHO-DHFR^−, Dainippon Sumitomo Pharma Co., Ltd.) were cultured in a medium (alpha-MEM+10% fetal bovine serum) containing 5% CO2 at 37° C. The cultured cells were added together with 100 μL of the medium to each well of the 96-well plate (IWAKI) so that the cell density per well is 6,000 cells/well, and culture was performed overnight. The culture solution was removed, and the medium having a predetermined test concentration was added thereto. After a 2-day culture, the medium was replaced, a Cell Counting Kit 8 (from DOJINDO LABORATORIES) was used to stain the cells for one hour, and measurement of absorbance was performed at 450 nm. The absorbance in this case is proportional to the cell number.
# As the test samples, the crystalline calcium salts of PQQ in Examples 1 and 2 above, and the disodium salt of PQQ or the raw material in Test Example 1, were used for testing after dilution by the medium. The test was duplicated for each sample, and the results were averaged.
# The concentration at which the cell count due to PQQ is largest (about 5%) compared to the case without PQQ is recorded as the optimum cell growth concentration. In addition, the concentration at which the total cell count is decreased by about 10% compared to the case without PQQ is recorded as the cell-growth retarding concentration.
# [3] = Elution test: amount of PQQ dissolved from the calcium salt with or without a chelating substance; format: physicochemical; settings: for Dissolved amount: added to water (1 mL), four hours at room temperature, centrifugation, absorption at 450 nm
# Experimental: Changes in the solubility of the insoluble salt due to the addition of a chelating substance were measured.
# [4] = Water solubility of the recovered solid (description); format: physicochemical; settings: dried solid
Compound,Appearance ([1]; Acetic acid 30 mM + Ammonium acetate 70 mM (pH 5)),Appearance ([1]; Dimethyl sulfoxide),Appearance ([1]; Na2HPO4 23.5 g/L NaH2PO4 5 g/L),"Appearance ([1]; PBS (GIBCO, pH 7.4))",Appearance ([1]; Simulated gastric fluid (pH 1.7)),release of calcium ions ([1]; neutral solution of phosphoric acid),release of calcium ions ([1]; simulated gastric fluid),Optimum cell growth concentration [2] [µg/mL],Cell growth retarding concentration [2] [µg/mL],Dissolved amount [3] [%],water solubility [4],"solubility of the calcium salt alone ([3]; water, no chelating substance)"
white calcium salt of PQQ [Example 15],White solid,Red solution,Red solution,Red solid,Red solid,easily released,difficult to be released,,,,,
crystalline calcium salt of PQQ [Example 2],,,,,,,,4.7,75,3,,
"O=C([O-])c1cc(C(=O)[O-])c2c(n1)C(=O)C(=O)c1cc(C(=O)O)[nH]c1-2.[Na+].[Na+] [Comparative Example 1, disodium salt of PQQ, reference compound]",,,,,,,,75,150,,,
"O=C(O)c1cc(C(=O)O)c2c(n1)C(=O)C(=O)c1cc(C(=O)O)[nH]c1-2 [Example 1, crystalline calcium salt of PQQ]",,,,,,,,2.3,75,1,poorly water-soluble,very low
